Source: patent US11530213B2, “Naphthyridinone derivatives and their use in the treatment of arrhythmia” (NOVARTIS AG, priority 2016, dated 2022)

Target: GIRK1/4 (Homo sapiens (Human), UniProt P48544+P48549)
Test: GIRK1/4 inhibition, Quattro (IonWorks) population patch clamp, inward potassium current in GIRK 1/4 HEK293 stable cells (test assay No. 1)
Assay type: cell-based
Details: percentage of current inhibition normalized to DMSO-only control
Outline: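 GIRK1/4-expressing HEK293 cells were recorded by IonWorks Quattro perforated patch (amphotericin B), with inward K+ current measured at 1200-1220 ms during a −120 to 40 mV ramp, before and after compound (50-0.1 µM or 0.5-0.01 µM final, quadruplicate). IC50 came from % current inhibition normalized to DMSO control.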

Chain of GIRK1/4 (P48549 whole entry): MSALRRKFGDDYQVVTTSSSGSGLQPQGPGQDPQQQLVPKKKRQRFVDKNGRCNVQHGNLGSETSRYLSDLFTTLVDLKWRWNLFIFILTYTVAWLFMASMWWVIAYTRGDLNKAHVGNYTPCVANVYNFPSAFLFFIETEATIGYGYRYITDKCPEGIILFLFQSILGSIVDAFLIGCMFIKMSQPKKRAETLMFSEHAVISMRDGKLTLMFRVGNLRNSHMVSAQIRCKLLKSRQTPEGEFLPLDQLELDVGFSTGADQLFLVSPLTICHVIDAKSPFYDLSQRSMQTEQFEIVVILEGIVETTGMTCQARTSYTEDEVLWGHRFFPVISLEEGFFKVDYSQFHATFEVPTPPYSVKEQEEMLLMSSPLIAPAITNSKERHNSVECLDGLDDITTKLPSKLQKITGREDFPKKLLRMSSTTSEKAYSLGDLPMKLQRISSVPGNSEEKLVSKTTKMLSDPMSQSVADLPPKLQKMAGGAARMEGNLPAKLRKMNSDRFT
Chain of GIRK1/4 (P48544 whole entry): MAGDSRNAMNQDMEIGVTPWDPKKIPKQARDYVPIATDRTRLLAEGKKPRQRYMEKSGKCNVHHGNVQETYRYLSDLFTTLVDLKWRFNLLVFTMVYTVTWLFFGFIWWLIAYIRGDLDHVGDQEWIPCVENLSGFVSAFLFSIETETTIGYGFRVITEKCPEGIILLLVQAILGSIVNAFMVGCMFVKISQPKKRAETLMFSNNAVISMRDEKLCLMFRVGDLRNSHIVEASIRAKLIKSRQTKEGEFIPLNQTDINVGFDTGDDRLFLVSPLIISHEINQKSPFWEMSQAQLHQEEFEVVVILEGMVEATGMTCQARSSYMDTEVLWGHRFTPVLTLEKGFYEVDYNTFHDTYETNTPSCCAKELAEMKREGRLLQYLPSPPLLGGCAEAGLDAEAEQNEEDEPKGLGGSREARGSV

In order of rising IC50:
1. Cc1cc(=O)c2c(C(O)CO)ncc(Cl)c2n1-c1c(Cl)cccc1Cl (stereo not drawn) [Example 85, 8-Chloro-1-(2,6-dichlorophenyl)-5-(1,2-dihydroxyethyl)-2-methyl-1,6-naphthyridin-4(1H)-one]  19 nM
2. Cc1cc(=O)c2c(C(C)(O)C(=O)CO)ncc(Cl)c2n1-c1c(Cl)cccc1Cl (stereo not drawn) [Example 89, 8-Chloro-1-(2,6-dichlorophenyl)-5-(2,4-dihydroxy-3-oxobutan-2-yl)-2-methyl-1,6-naphthyridin-4(1H)-one]  24 nM
3. Cc1cc(=O)c2c(C(=O)CO)ncc(Cl)c2n1-c1c(Cl)cccc1Cl [Example 86, 8-Chloro-1-(2,6-dichlorophenyl)-5-(2-hydroxyacetyl)-2-methyl-1,6-naphthyridin-4(1H)-one]  37 nM
4. Cc1cc(=O)c2c(OCCO)ncc(Cl)c2n1-c1c(Cl)cc(C#CCN2CCOCC2)cc1Cl [Example 91, 8-Chloro-1-(2,6-dichloro-4-(3-morpholinoprop-1-yn-1-yl)phenyl)-5-(2-hydroxyethoxy)-2-methyl-1,6-naphthyridin-4(1H)-one]  40 nM
5. Cc1cc(=O)c2c(OCC3COC(C)(C)O3)ncc(Cl)c2n1-c1c(Cl)cc(C#CCN(C)C)cc1Cl (stereo not drawn) [Example 93, 8-Chloro-1-(2,6-dichloro-4-(3-(dimethylamino)prop-1-yn-1-yl)phenyl)-5-((2,2-dimethyl-1,3-dioxolan-4-yl)methoxy)-2-methyl-1,6-naphthyridin-4(1H)-one]  46 nM
6. Cc1cc(=O)c2c(OCCO)ncc(Cl)c2n1-c1c(Cl)cc(C#CCN2CCS(=O)(=O)CC2)cc1Cl [Example 92, 8-Chloro-1-(2,6-dichloro-4-(3-(1,1-dioxidothiomorpholino)prop-1-yn-1-yl)phenyl)-5-(2-hydroxyethoxy)-2-methyl-1,6-naphthyridin-4(1H)-one]  47 nM
7. Cc1cc(=O)c2c(OCC(O)CO)ncc(Cl)c2n1-c1c(Cl)cc(C#CC(C)(C)N)cc1Cl (stereo not drawn) [Example 90, 1-(4-(3-Amino-3-methylbut-1-yn-1-yl)-2,6-dichlorophenyl)-8-chloro-5-(2,3-dihydroxypropoxy)-2-methyl-1,6-naphthyridin-4(1H)-one]  327 nM
8. O=c1cc(CO)n(-c2c(Cl)cccc2Cl)c2c(Cl)cnc(COC(CO)CO)c12 [Example 88, 8-Chloro-1-(2,6-dichlorophenyl)-5-(((1,3-dihydroxypropan-2-yl)oxy)methyl)-2-(hydroxymethyl)-1,6-naphthyridin-4(1H)-one]  1230 nM
9. O=c1cc(CO)n(-c2c(Cl)cccc2Cl)c2c(Cl)cnc(COCC(O)CO)c12 (stereo not drawn) [Example 87, 8-Chloro-1-(2,6-dichlorophenyl)-5-((2,3-dihydroxypropoxy)methyl)-2-(hydroxymethyl)-1,6-naphthyridin-4(1H)-one]  2260 nM
